This test addresses T1, IKKβ (Homo sapiens, UniProt O14920).
T1 construct: gene IKBKB; Human, recombinant IKKβ
T1 sequence (O14920 1-756): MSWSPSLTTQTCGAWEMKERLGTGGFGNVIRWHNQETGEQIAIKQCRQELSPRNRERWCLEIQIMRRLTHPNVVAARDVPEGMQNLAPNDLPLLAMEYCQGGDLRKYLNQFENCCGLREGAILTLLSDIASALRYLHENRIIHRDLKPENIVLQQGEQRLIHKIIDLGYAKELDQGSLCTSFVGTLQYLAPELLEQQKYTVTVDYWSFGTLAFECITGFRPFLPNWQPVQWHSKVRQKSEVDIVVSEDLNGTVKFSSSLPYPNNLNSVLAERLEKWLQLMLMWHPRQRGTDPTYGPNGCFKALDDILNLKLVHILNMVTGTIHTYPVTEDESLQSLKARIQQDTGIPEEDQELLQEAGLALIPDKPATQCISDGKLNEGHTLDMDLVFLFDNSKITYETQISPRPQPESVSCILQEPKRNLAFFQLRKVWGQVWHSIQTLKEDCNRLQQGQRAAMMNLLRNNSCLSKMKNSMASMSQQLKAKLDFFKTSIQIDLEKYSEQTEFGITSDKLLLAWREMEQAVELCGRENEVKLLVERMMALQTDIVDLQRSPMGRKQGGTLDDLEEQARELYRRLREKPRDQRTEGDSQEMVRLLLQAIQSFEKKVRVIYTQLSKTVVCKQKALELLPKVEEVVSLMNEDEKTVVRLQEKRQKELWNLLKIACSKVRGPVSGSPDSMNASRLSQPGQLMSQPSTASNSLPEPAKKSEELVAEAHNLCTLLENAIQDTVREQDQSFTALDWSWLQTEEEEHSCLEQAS
Briefly: K-LISA IKKβ inhibitor screening kit (ELISA of GST-IκBα phosphorylation by recombinant IKKβ). Type of test: biochemical.

With `CC(=O)OC[C@@]12CC[C@H]3C(C)(C)CCC[C@]3(C)[C@H]1C[C@@H](C1=CC(=O)O[C@H]1O)O2` [AA, (12S)-17-acetoxy-8a,12-epoxy-16(R)-hydroxylabd-13(14)Z-en-15,16-olide], the concentration for a half-maximal effect (EC50) is 13.2 µM.

Source of the values: article PMC2995738, “In Vitro and In Vivo Anti-Inflammatory Activity of 17-O-Acetylacuminolide through the Inhibition of Cytokines, NF-κB Translocation and IKKβ Activity” (PLoS ONE, 2010).
